Laboratory results reported in patent US11130756B2, “[1,2,4]Triazolo[4,3-A]pyridinyl substituted indole compounds” (BRISTOL-MYERS SQUIBB COMPANY, priority 2017, dated 2021).
pIC50: −log10 of the molar value.

Tests used:
Type in all cases: cell-based
human TLR7 = target: T1, human TLR7 (Homo sapiens, UniProt Q9NYK1); test: TLR7 inhibition reporter assay (HEK-Blue, SEAP); conditions: HEK-Blue cells overexpressing human TLR7, gardiquimod 7.5 μM, 22 hour incubation
T1 construct: host or cells: HEK-Blue cells
T1 sequence (Q9NYK1 27-1049): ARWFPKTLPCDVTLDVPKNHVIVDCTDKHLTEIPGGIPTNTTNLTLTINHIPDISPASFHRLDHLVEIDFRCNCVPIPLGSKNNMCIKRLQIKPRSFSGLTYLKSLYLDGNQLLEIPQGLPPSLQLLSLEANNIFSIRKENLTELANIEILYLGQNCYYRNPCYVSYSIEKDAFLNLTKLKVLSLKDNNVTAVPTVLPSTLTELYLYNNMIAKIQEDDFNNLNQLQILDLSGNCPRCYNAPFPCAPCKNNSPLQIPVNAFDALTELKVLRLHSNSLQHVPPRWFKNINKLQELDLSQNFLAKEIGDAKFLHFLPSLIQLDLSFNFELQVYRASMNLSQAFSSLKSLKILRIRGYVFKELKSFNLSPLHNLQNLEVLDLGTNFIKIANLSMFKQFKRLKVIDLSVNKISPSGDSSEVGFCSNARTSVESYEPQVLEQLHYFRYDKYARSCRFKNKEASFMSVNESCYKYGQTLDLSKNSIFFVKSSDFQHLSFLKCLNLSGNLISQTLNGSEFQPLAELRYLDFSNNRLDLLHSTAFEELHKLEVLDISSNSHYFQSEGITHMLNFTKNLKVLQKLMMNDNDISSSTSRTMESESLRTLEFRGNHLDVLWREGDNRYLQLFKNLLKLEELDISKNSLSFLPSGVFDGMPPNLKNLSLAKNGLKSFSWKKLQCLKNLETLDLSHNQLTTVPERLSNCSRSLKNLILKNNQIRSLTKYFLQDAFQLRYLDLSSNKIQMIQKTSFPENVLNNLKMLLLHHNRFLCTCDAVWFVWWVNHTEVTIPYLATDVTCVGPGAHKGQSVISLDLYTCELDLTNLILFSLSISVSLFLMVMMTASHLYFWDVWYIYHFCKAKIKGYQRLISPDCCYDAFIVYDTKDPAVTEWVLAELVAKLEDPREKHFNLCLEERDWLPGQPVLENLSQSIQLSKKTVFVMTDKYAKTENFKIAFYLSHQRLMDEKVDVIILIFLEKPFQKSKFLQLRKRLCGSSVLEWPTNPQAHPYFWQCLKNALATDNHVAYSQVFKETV
Protocol: (§1) TLR7/8/9 Inhibition Reporter Assays
(§2) HEK-Blue™-cells (Invivogen) overexpressing human TLR7, TLR8 or TLR9 receptors were used for screening inhibitors of these receptors using an inducible SEAP (secreted embryonic alkaline phosphatase) reporter gene under the control of the IFN-β minimal promoter fused to five NF-κB and AP-1-binding sites. Briefly, cells are seeded into Greiner 384 well plates (15000 cells per well for TLR7, 20,000 for TLR8 and 25,000 for TLR9) and then treated with test compounds in DMSO to yield a final dose response concentration range of 0.05 nM-50 μM. After a 30 minute compound pre-treatment at room temperature, the cells are then stimulated with a TLR7 ligand (gardiquimod at a final concentration of 7.5 μM), TLR8 ligand (R848 at a final concentration of 15.9 μM) or TLR9 ligand (ODN2006 at a final concentration of 5 nM) to activate NF-κB and AP-1 which induce the production of SEAP. After a 22 hour incubation at 37° C., 5% CO2, SEAP levels are determined with the addition of HEK-Blue™ Detection reagent (Invivogen), a cell culture medium that allows for detection of SEAP, according to manufacturer's specifications. The percent inhibition is determined as the % reduction in the HEK-Blue signal present in wells treated with agonist plus DMSO alone compared to wells treated with a known inhibitor.

human TLR8 = target: T2, human TLR8 (Homo sapiens, UniProt Q9NR97); test: TLR8 inhibition reporter assay (HEK-Blue, SEAP); conditions: HEK-Blue cells overexpressing human TLR8, R848 15.9 μM, 22 hour incubation
T2 construct: host or cells: HEK-Blue cells
T2 sequence (Q9NR97 27-1041): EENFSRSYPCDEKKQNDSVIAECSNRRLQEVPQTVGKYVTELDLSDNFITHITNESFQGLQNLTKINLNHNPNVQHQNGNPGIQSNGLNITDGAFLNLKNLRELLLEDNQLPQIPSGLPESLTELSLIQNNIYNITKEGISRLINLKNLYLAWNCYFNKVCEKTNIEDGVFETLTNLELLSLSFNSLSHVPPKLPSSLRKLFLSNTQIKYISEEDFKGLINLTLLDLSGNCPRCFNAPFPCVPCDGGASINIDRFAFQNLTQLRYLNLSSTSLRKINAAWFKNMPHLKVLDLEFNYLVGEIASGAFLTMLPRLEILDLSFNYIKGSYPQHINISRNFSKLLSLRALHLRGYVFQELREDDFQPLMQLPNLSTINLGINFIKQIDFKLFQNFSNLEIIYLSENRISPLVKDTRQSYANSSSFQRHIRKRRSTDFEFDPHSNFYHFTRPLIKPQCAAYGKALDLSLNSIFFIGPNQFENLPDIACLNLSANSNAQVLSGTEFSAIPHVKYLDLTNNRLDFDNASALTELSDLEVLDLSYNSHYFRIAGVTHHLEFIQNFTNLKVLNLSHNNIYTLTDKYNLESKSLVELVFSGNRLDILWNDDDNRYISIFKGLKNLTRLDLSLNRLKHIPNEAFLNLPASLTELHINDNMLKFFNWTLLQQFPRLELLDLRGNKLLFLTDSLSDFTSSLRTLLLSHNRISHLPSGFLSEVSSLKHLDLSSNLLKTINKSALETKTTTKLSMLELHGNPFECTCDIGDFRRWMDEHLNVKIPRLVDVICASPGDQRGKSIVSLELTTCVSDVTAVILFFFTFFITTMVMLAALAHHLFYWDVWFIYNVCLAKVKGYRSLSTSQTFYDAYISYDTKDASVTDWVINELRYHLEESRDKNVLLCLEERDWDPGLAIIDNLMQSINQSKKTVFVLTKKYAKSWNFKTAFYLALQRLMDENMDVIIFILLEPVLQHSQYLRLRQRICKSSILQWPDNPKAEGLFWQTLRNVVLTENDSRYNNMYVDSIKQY
Protocol: as §1, §2

human TLR9 = target: T3, human TLR9 (Homo sapiens, UniProt Q9NR96); test: TLR9 inhibition reporter assay (HEK-Blue, SEAP); conditions: HEK-Blue cells overexpressing human TLR9, ODN2006 5 nM, 22 hour incubation
T3 construct: host or cells: HEK-Blue cells
T3 sequence (Q9NR96 26-1032): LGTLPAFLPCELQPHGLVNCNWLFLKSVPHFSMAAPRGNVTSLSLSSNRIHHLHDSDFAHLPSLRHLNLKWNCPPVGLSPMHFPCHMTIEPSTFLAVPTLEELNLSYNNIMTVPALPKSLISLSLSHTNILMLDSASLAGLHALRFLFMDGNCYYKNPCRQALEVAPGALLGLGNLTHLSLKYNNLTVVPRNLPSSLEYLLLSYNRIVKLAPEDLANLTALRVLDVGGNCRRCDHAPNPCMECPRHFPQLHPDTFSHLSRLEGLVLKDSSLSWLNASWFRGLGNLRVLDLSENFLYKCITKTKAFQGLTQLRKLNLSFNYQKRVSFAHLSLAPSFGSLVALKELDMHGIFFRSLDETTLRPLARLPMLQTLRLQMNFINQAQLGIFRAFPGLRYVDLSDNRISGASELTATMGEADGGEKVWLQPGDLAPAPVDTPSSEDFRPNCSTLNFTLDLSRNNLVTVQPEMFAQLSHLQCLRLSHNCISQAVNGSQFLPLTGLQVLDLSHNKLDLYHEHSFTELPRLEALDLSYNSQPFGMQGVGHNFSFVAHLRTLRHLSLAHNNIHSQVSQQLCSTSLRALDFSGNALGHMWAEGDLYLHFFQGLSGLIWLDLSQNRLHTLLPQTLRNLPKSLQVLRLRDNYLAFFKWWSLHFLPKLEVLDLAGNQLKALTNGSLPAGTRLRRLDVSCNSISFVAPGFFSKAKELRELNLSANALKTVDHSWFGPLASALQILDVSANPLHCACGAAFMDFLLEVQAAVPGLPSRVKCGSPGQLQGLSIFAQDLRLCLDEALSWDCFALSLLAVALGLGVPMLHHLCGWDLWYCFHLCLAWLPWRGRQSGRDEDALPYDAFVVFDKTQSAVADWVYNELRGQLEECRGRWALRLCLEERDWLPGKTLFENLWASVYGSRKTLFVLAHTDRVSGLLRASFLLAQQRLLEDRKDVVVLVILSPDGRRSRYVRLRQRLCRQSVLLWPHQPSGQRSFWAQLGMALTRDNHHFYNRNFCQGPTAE
Protocol: as §1, §2

pIC50 (human TLR7) | pIC50 (human TLR8) | pIC50 (human TLR9) | Compound
8.92 | 8.19 | 6.42 | 1-(4-(3-isopropyl-2-(8-methoxy-5-methyl-[1,2,4]triazolo[4,3-a)pyridin-6-yl)-1H-indol-5-yl)piperidin-1-yl)-2-methylpropan-2-ol [Example 62]
8.41 | 8.09 | 5.26 | Cc1c(-c2[nH]c3ccc(C4CCN(C5CCOC5)CC4)cc3c2C(C)C)cn2cnnc2c1C (single isomer, unassigned) [Example 102, 6-(3-isopropyl-5-(1-(tetrahydrofuran-3-yl)piperidin-4-yl)-1H-indol-2-yl)-7,8-dimethyl-[1,2,4]triazolo[4,3-a]pyridine]
8.29 | 7.93 | 4.99 | Cc1c(-c2[nH]c3ccc(C4CCN(C5CCOC5)CC4)cc3c2C(C)C)cn2cnnc2c1C (single isomer, unassigned) [Example 103, 6-(3-isopropyl-5-(1-(tetrahydrofuran-3-yl)piperidin-4-yl)-1H-indol-2-yl)-7,8-dimethyl-[1,2,4]triazolo[4,3-a]pyridine]
8.20 | 7.71 | 5.18 | Cc1c(-c2[nH]c3ccc(C4CC(C)N(CCS(C)(=O)=O)C(C)C4)cc3c2C(C)C)cn2cnnc2c1C (single isomer, unassigned) [Example 110, 6-(5-(2,6-dimethyl-1-(2-(methylsulfonyl)ethyl)piperidin-4-yl)-3-isopropyl-1H-indol-2-yl)-7,8-dimethyl-[1,2,4]triazolo[4,3-a]pyridine]
7.62 | 6.95 | 4.72 | Cc1c(-c2[nH]c3ccc(C4CC(C)N(CCS(C)(=O)=O)C(C)C4)cc3c2C(C)C)cn2cnnc2c1C (single isomer, unassigned) [Example 111, 6-(5-(2,6-dimethyl-1-(2-(methylsulfonyl)ethyl)piperidin-4-yl)-3-isopropyl-1H-indol-2-yl)-7,8-dimethyl-[1,2,4]triazolo[4,3-a]pyridine]
8.62 | 7.22 | 5.32 | Cc1c(-c2[nH]c3ccc(C4CC(C)N(CC5(C)COC5)C(C)C4)cc3c2C(C)C)cn2cnnc2c1C (single isomer, unassigned) [Example 113, 6-(5-(2,6-dimethyl-1-((3-methyloxetan-3-yl)methyl)piperidin-4-yl)-3-isopropyl-1H-indol-2-yl)-7,8-dimethyl-[1,2,4]triazolo[4,3-a]pyridine]
7.86 | 6.65 | 5.14 | Cc1c(-c2[nH]c3ccc(C4CC(C)N(CC5(C)COC5)C(C)C4)cc3c2C(C)C)cn2cnnc2c1C (single isomer, unassigned) [Example 114, 6-(5-(2,6-dimethyl-1-((3-methyloxetan-3-yl)methyl)piperidin-4-yl)-3-isopropyl-1H-indol-2-yl)-7,8-dimethyl-[1,2,4]triazolo[4,3-a]pyridine]

Compound | pIC50 (human TLR7) | pIC50 (human TLR8) | pIC50 (human TLR9)
Cc1c(-c2[nH]c3ccc(C4C[C@H]5CC[C@@H](C4)N5)cc3c2C(C)C)cn2cnnc2c1C (single isomer, unassigned) [Example 116, 6-(5-(8-azabicyclo[3.2.1]octan-3-yl)-3-isopropyl-1H-indol-2-yl)-7,8-dimethyl-[1,2,4]triazolo[4,3-a]pyridine] | 8.00 | 6.99 | 5.95
Cc1c(-c2[nH]c3ccc(C4C[C@H]5CC[C@@H](C4)N5)cc3c2C(C)C)cn2cnnc2c1C (single isomer, unassigned) [Example 117, 6-(5-(8-azabicyclo[3.2.1]octan-3-yl)-3-isopropyl-1H-indol-2-yl)-7,8-dimethyl-[1,2,4]triazolo[4,3-a]pyridine] | 7.50 | 6.31 | 5.22
Cc1c(-c2[nH]c3ccc(C4C[C@H]5CC[C@@H](C4)N5CC(=O)N(C)C)cc3c2C(C)C)cn2cnnc2c1C (single isomer, unassigned) [Example 118] | 8.06 | 6.80 | 5.26
Cc1c(-c2[nH]c3ccc(C4C[C@H]5CC[C@@H](C4)N5CC(=O)N(C)C)cc3c2C(C)C)cn2cnnc2c1C (single isomer, unassigned) [Example 119] | 7.89 | 6.99 | 5.99
Cc1c(-c2[nH]c3ccc(C4C[C@H]5CC[C@@H](C4)N5CC4(C)COC4)cc3c2C(C)C)cn2cnnc2c1C (single isomer, unassigned) [Example 120] | 8.17 | 7.34 | 5.42
